Experimental data published in patent US20150004697A1, “METHOD FOR PRODUCING MULTIPOLAR CELL” (TOAGOSEI CO., LTD., priority 2011, published 2015).

Columns and labels:
Format in all cases: cell-based
[1] = test system: human alveolar basal epithelial adenocarcinoma cells, A549; assay: Multipolarity-inducing activity assay 3 (A549 cells synchronized in G2 phase (or M phase)); conditions: peptide 10 μM; for Multipolar level (%): 100 M-phase cells; for fluorescence microscope observation of centrosomes and multipolar spindles: DAPI, anti-tubulin and anti-centrin antibody
Description: Some of the sample peptides obtained in Example 1 were tested for multipolarity-inducing activity against target cultured tumor cells. Details of the assay are as described below. As the tumor cells tested, cells forming a […] (human alveolar basal epithelial adenocarcinoma cells, A549) were used. The cell line was cultured in the same manner as Example 2 described above. The resulting cultured tumor cells were synchronized in the G2 phase (or M phase) in the same manner as Example 3 described above. Similarly to Examples 2 and 3 described above (although the number of M-phase cells was 100), the presence of multipolarity was observed by immunofluorescence under fluorescence microscope. In addition, using centrin-2 as a marker for centrosomes (centrioles), the cells were tested for the presence of centrin-2 (i.e. the presence of centrosomes) by immunofluorescence with an anti-centrin-2 antibody (primary antibody) to identify the centrin-2 and a fluorescent dye-labeled secondary antibody to identify the primary antibody.

[2] = test system: HeLa cell line (HeLa S3); assay: Multipolarity-inducing activity assay 1 (cells synchronized in G1 phase by double thymidine block); conditions: peptide 10 μM, 6 hours of incubation; for Number of multipolar cells: HeLa S3 synchronized in G1 phase, count among the M-phase cells observed
Description: Some of the sample peptides obtained in Example 1 were tested for multipolarity-inducing activity against target cultured tumor cells. Details of the assay are as described below.
As the tumor cells tested, a HeLa cell line (HeLa S3) was used. The cell line was cultured beforehand in a DMEM medium (i.e. Dulbecco MEM medium (DMEM medium, a Gibco product) containing 10% fetal bovine serum (FBS, a Gibco product), 2 mM of L-glutamine, 50 unit/mL of penicillin, and 50 μg/mL of streptomycin), and seeded at about 3×10^4 cells per well in an 8-well slide glass. Thymidine was added to the culture medium to a final concentration of 2.5 mM. Incubation was carried out at 37° C. under 5% CO2 for 16 hours. The culture medium was exchanged to remove thymidine and incubation was carried out for 8 more hours. Subsequently, thymidine was added again to a final concentration of 2.5 mM and incubation was carried out for 16 hours.
By such double thymidine block, the cells being cultured were synchronized in the G1 phase of the cell cycle. After such synchronization treatment, the culture medium was exchanged to remove thymidine and incubation was carried out for 2 more hours. Subsequently, one of the sample peptides was added to each well. In this example, one of Samples 1, 4, 8, 9, 12 and 14 was added to a peptide concentration in the well of 10 μM.
After a sample peptide was added as described above, the 8-well slid glass was incubated under the aforementioned conditions for 6 hours.
After 6 hours of incubation, the presence of multipolarity was observed by immunofluorescence under fluorescence microscope. In particular, after 6 hours of incubation following the addition of a sample peptide, the cultured cells were subjected to nuclear staining with DAPI (4′,6-diamidino-2-phenylindole), and using α-tubulin as a marker for spindles, the cells were tested for the presence of tubulin (i.e., the presence of spindles) by immunofluorescence with an anti-tubulin antibody (primary antibody) to identify the tubulin and a fluorescent dye (ALEXA FLUOR(registered trademark) 555)-labeled secondary antibody to identify the primary antibody.

[3] = test system: HeLa cell line (HeLa S3); assay: Multipolarity-inducing activity assay 2 (cells synchronized in G2 phase (or M phase) by nocodazole); conditions: for Multipolar level (%): peptide 10 μM for 4 hours with nocodazole, then 2 hours without, % of M-phase cells; for Multipolar level (%) / Number of multipolar cells: HeLa S3 synchronized in G2 phase (M phase); for Number of multipolar cells / fluorescence microscope observation of centrosomes and multipolar spindles: peptide 10 μM; for Number of multipolar cells: count among 75 M-phase cells; for fluorescence microscope observation of centrosomes and multipolar spindles: HeLa synchronized in G2 phase (or M phase) by nocodazole, DAPI and anti-tubulin antibody
Description: The same sample peptides as those used in Example 2 above were used and tested for multipolarity-inducing activity against cultured tumor cells synchronized in the G2 phase (or M phase). Details of the assay are as described below.
As the tumor cells tested, a HeLa cell line (HeLa S3) was used. The cell line was cultured under the same conditions as Example 2 and seeded at about 3×10^4 cells per well in an 8-well slide glass. Thymidine was added to the culture medium to a final concentration of 2.5 mM. Incubation was carried out at 37° C. under 5% CO2 for 18 hours. The culture medium was exchanged to remove thymidine and incubation was carried out for 6 more hours. Subsequently, nocodazole was added to a final concentration of 0.1 μg/mL and incubation was carried out for 16 hours. By such addition of nocodazole, the cells being cultured were synchronized in the G2 phase (M phase) of the cell cycle.
After the 16 hours of incubation, without exchanging the culture medium (i.e. with nocodazole being contained), one of the sample peptides was added to each well to a peptide concentration in the well of 10 μM and incubation was carried out for 4 hours. Subsequently, the culture medium was exchanged and incubation was continued for 2 more hours without nocodazole or the sample peptide.
After the 2 hours of incubation, in the same manner as Example 2, the presence of multipolarity was observed by immunofluorescence under fluorescence microscope.

| Sequence | Multipolar level (%) [1] | Number of multipolar cells [2] | Multipolar level (%) [3] | Number of multipolar cells [3] | fluorescence microscope observation of centrosomes and multipolar spindles [3] | Multipolar level (%) ([2]; HeLa S3 synchronized in G1 phase (double thymidine block), % multipolar cells relative to M-phase cells) | fluorescence microscope observation of centrosomes and multipolar spindles [1] |
| --- | --- | --- | --- | --- | --- | --- | --- |
| CEISAKRTC [Sample 7] | 36% |  |  |  |  |  |  |
| CGHRPYQYC [Sample 4] | 36% | 6 | 62.7% | 47 |  |  |  |
| CHILHAQAC [Sample 8] | 36% | 11 | 68.0% | 51 |  |  |  |
| CLAPSPSKC [Sample 2] | 38% |  |  |  |  |  |  |
| CLAPSPSKCKKRFLRKNDRKKR (CLAPSPSKCKKRTLRKNDRKKR) [Sample 14] | 38% | 10 | 61.3% | 46 |  |  |  |
| CLTKSYTSC [Sample 12] |  | 13 | 64.0% | 48 | 3 or more centrosomes formed in many cells |  |  |
| CPRPPSLEC [Sample 9] |  | 19 | 73.3% | 55 | 3 or more centrosomes formed in many cells and a cell with a particularly high degree of multipolarity |  |  |
| CSSATGKSC [Sample 1] |  | 7 | 62.7% | 47 |  | 8.3% |  |
| CSYEKRPMC [Sample 11] |  |  |  |  |  |  | 3 or more (typically 4 or more, e.g. 8 or more) centrosomes formed in many cells |
| CTGHWASEC [Sample 10] | 31% |  |  |  |  |  |  |
| CTLNSHSNC [Sample 6] | 30% |  |  |  |  |  | 3 or more (typically 4 or more, e.g. 8 or more) centrosomes formed in many cells |
